# Results as given in US20050101595A1, “N-containing cycloalkyl-substituted amino-thiazole derivatives and pharmaceutical compositions for inhibiting cell proliferation and methods for their use” (PFIZER INC., priority 2003, published 2005).
# Assays:
# [1] = target: human CDK4 and genetically truncated (1-264) cyclin D3 (Homo sapiens, UniProt P11802); assay: Inhibition of CDK4/Cyclin D Retinoblastoma Kinase Activity; assay type: biochemical; details: 0.03 μM compound
# Procedure, shortened: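 Human CDK4/truncated cyclin D3 (1-264) complex from baculovirus-infected insect cells, 5 nM, phosphorylating Rb fragment (residues 386-928, His-tagged) with 25 μM [32/33P]ATP in HEPES pH 7.4, MgCl2, 2% DMSO at 30° C. for 20 min (60 min for tight binders). Filter-captured radioactivity by phosphorimager; apparent Ki from competitive or tight-binding fits.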
# [2] = test system: HCT-116 cell line; assay: Inhibition of cell growth, tetrazolium salt (MTT) assay; assay type: cell-based; details: HCT-116; for HCT-116 % Inhibition at 0.25 μM: 0.25 μM compound; for HCT-116 % Inhibition at 0.1 μM: 0.1 μM compound
# Procedure, shortened: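 HCT-116 cells in McCoy's 5A medium received compound 4 h after plating (0.5% v/v DMSO) and were incubated three to five days at 37° C, 5% CO2. MTT (0.2 mg/mL final) then added for 4 h; DMSO-solubilized formazan read at 540 nm against 0.5% DMSO-treated controls.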
# [3] = target: CDK2/Cyclin A (Homo sapiens, UniProt P24941); assay: Inhibition of CDK2/Cyclin A Retinoblastoma Kinase Activity; assay type: biochemical; details: 0.03 μM compound; for CDK2 % Inhibition At 0.03 μM: Table 2; for CDK2 % Inhibition at 0.03 μM: Table 3
# Procedure, shortened: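 Baculovirus-expressed CDK2 complexed with proteolyzed cyclin A (10 or 19 nM), Rb fragment substrate, 25 μM [32P/33P]ATP, HEPES pH 7.4, 30 °C for 60 or 75 min under initial-rate conditions. Filter capture and phosphorimager readout; apparent Ki fitted to competitive or tight-binding competitive inhibition.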
# human CDK4 and genetically truncated (1-264) cyclin D3, sequence (P11802 whole entry, the tested form may be a part): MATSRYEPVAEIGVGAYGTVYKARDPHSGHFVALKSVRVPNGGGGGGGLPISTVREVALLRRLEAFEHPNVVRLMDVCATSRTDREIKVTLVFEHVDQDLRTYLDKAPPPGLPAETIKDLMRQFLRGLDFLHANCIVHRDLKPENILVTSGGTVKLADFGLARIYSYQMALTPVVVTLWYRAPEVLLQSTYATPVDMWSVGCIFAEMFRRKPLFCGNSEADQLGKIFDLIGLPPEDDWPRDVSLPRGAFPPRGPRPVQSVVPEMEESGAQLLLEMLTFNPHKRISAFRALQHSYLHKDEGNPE
# human CDK4 and genetically truncated (1-264) cyclin D3, sequence (P30281 1-264 partner): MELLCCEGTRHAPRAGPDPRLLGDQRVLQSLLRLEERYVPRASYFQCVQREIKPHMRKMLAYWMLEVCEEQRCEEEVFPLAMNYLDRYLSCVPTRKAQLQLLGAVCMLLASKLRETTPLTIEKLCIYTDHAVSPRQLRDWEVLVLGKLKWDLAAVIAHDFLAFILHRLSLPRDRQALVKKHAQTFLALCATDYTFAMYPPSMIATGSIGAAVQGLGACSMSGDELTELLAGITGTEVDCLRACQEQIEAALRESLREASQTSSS
CDK4 % Inhibition at 0.03 μM ([1]; Table 2) [%],CDK2 % Inhibition At 0.03 μM [3] [%],"CDK4 % Inhibition at 0.03 μM ([1]; Table 2, 0.03 µM) [%]",CDK2 % Inhibition At 0.03 μM ([3]; 0.03 µM) [%],CDK4 % Inhibition at 0.03 μM ([1]; Table 3) [%],CDK2 % Inhibition at 0.03 μM [3] [%],SMILES,HCT-116 % Inhibition at 0.25 μM ([2]; Table 2) [%],"HCT-116 % Inhibition at 0.25 μM ([2]; Table 2, 0.25 µM) [%]",HCT-116 % Inhibition at 0.1 μM ([2]; Table 3) [%],HCT-116 % Inhibition at 0.25 μM ([2]; Table 3) [%]
15,23,,,,,CCOC(=O)CC[C@H](NC(=O)N1CCC(Nc2nc(N)c(C(=O)c3c(F)cccc3F)s2)CC1)C(=O)OCC [Example O80],46,,,
−4,25,,,,,CCCc1ccccc1NC(=O)N1CCC(Nc2nc(N)c(C(=O)c3c(F)cccc3F)s2)CC1 [Example O81],44,,,
4,34,,,,,Nc1nc(NC2CCN(C(=O)Nc3ccccc3Oc3ccccc3)CC2)sc1C(=O)c1c(F)cccc1F [Example O82],34,,,
12,29,,,,,CCCCCCCOc1ccc(NC(=O)N2CCC(Nc3nc(N)c(C(=O)c4c(F)cccc4F)s3)CC2)cc1 [Example O83],59,,,
,,14,23,,,COc1ccc(NC(=O)N2CCC(Nc3nc(N)c(C(=O)c4c(F)cccc4F)s3)CC2)cc1 [Example O84],,42,,
8,34,,,,,Nc1nc(NC2CCN(C(=O)Nc3cc(C(F)(F)F)ccc3F)CC2)sc1C(=O)c1c(F)cccc1F [Example O85],47,,,
23,32,,,,,Nc1nc(NC2CCN(C(=O)Nc3cccnc3)CC2)sc1C(=O)c1c(F)cccc1F [Example O86],47,,,
16,25,,,,,Nc1nc(NC2CCN(C(=O)NCCc3ccc4c(c3)OCO4)CC2)sc1C(=O)c1c(F)cccc1F [Example O87],44,,,
12,31,,,,,CN1C(=O)c2ccc(NC(=O)N3CCC(Nc4nc(N)c(C(=O)c5c(F)cccc5F)s4)CC3)cc2C1=O [Example O88],45,,,
,,,,51,45,Nc1nc(NC2CCN(S(=O)(=O)c3cccc4ccccc34)CC2)sc1C(=O)c1c(F)cccc1F [Example P1],,,9,32
,,,,69,43,CN(C)c1cccc2c(S(=O)(=O)N3CCC(Nc4nc(N)c(C(=O)c5c(F)cccc5F)s4)CC3)cccc12 [Example P2],,,15,24
,,,,65,64,Nc1nc(NC2CCN(S(=O)(=O)c3ccc4ccccc4c3)CC2)sc1C(=O)c1c(F)cccc1F [Example P3],,,17,23
,,,,32,15,CC(=O)Nc1nc(C)c(S(=O)(=O)N2CCC(Nc3nc(N)c(C(=O)c4c(F)cccc4F)s3)CC2)s1 [Example P4],,,18,24
,,,,70,64,Nc1nc(NC2CCN(S(=O)(=O)c3cccs3)CC2)sc1C(=O)c1c(F)cccc1F [Example P5],,,27,32
,,,,18,−32,Nc1nc(NC2CCN(S(=O)(=O)c3cccc4cccnc34)CC2)sc1C(=O)c1c(F)cccc1F [Example P6],,,22,23
,,,,47,49,CN(C)S(=O)(=O)N1CCC(Nc2nc(N)c(C(=O)c3c(F)cccc3F)s2)CC1 [Example P7],,,25,23
,,,,72,73,Nc1nc(NC2CCN(S(=O)(=O)c3ccccc3)CC2)sc1C(=O)c1c(F)cccc1F [Example P8],,,37,33
,,,,46,−17,CC(C)c1cc(C(C)C)c(S(=O)(=O)N2CCC(Nc3nc(N)c(C(=O)c4c(F)cccc4F)s3)CC2)c(C(C)C)c1 [Example P9],,,13,35

CDK4 % Inhibition at 0.03 μM ([1]; Table 2) [%],CDK2 % Inhibition At 0.03 μM [3] [%],"CDK4 % Inhibition at 0.03 μM ([1]; Table 2, 0.03 µM) [%]",CDK2 % Inhibition At 0.03 μM ([3]; 0.03 µM) [%],CDK4 % Inhibition at 0.03 μM ([1]; Table 3) [%],CDK2 % Inhibition at 0.03 μM [3] [%],SMILES,HCT-116 % Inhibition at 0.25 μM ([2]; Table 2) [%],"HCT-116 % Inhibition at 0.25 μM ([2]; Table 2, 0.25 µM) [%]",HCT-116 % Inhibition at 0.1 μM ([2]; Table 3) [%],HCT-116 % Inhibition at 0.25 μM ([2]; Table 3) [%]
,,,,11,−14,Cc1cc(C)c(S(=O)(=O)N2CCC(Nc3nc(N)c(C(=O)c4c(F)cccc4F)s3)CC2)c(C)c1 [Example P10],,,14,35
,,,,22,−23,Nc1nc(NC2CCN(S(=O)(=O)c3cccc([N+](=O)[O-])c3)CC2)sc1C(=O)c1c(F)cccc1F [Example P11],,,19,27
,,,,54,54,Nc1nc(NC2CCN(S(=O)(=O)c3ccc(Br)cc3)CC2)sc1C(=O)c1c(F)cccc1F [Example P12],,,24,29
,,,,77,75,Nc1nc(NC2CCN(S(=O)(=O)c3ccc(F)cc3)CC2)sc1C(=O)c1c(F)cccc1F [Example P13],,,19,31
,,,,67,60,Nc1nc(NC2CCN(S(=O)(=O)c3ccc(Cl)cc3)CC2)sc1C(=O)c1c(F)cccc1F [Example P14],,,23,25
,,,,65,50,Nc1nc(NC2CCN(S(=O)(=O)c3ccc(Cl)c([N+](=O)[O-])c3)CC2)sc1C(=O)c1c(F)cccc1F [Example P15],,,30,34
,,,,67,71,Nc1nc(NC2CCN(S(=O)(=O)c3ccc(I)cc3)CC2)sc1C(=O)c1c(F)cccc1F [Example P16],,,34,35
,,,,78,77,CC(=O)Nc1ccc(S(=O)(=O)N2CCC(Nc3nc(N)c(C(=O)c4c(F)cccc4F)s3)CC2)cc1 [Example P17],,,14,36
,,,,6,−20,CN(C)c1ccc(N=Nc2ccc(S(=O)(=O)N3CCC(Nc4nc(N)c(C(=O)c5c(F)cccc5F)s4)CC3)cc2)cc1 [Example P18],,,20,36
,,,,73,63,Nc1nc(NC2CCN(S(=O)(=O)c3ccc([N+](=O)[O-])cc3)CC2)sc1C(=O)c1c(F)cccc1F [Example P19],,,19,30
,,,,76,78,COc1ccc(S(=O)(=O)N2CCC(Nc3nc(N)c(C(=O)c4c(F)cccc4F)s3)CC2)cc1 [Example P20],,,23,43
,,,,32,23,Nc1nc(NC2CCN(S(=O)(=O)c3ccc(C(=O)O)cc3)CC2)sc1C(=O)c1c(F)cccc1F [Example P21],,,19,29
,,,,38,29,CC(C)(C)c1ccc(S(=O)(=O)N2CCC(Nc3nc(N)c(C(=O)c4c(F)cccc4F)s3)CC2)cc1 [Example P22],,,27,31
,,,,67,64,Cc1ccc(S(=O)(=O)N2CCC(Nc3nc(N)c(C(=O)c4c(F)cccc4F)s3)CC2)cc1 [Example P23],,,19,32
,,,,24,5,CC(C)S(=O)(=O)N1CCC(Nc2nc(N)c(C(=O)c3c(F)cccc3F)s2)CC1 [Example P24],,,26,36
,,,,82,62,Nc1nc(NC2CCN(S(=O)(=O)Cc3ccccc3)CC2)sc1C(=O)c1c(F)cccc1F [Example P25],,,8,33
,,,,39,37,Nc1nc(NC2CCN(S(=O)(=O)/C=C/c3ccccc3)CC2)sc1C(=O)c1c(F)cccc1F [Example P26],,,4,23
